Laboratory results as given in PubChem BioAssay AID1508612.

Assay: passive permeability, PAMPA, ADME assay (AID 1508612)
Settings: pH 7.4, 30.0 min, 50.0 µM

SMILES | Papp [×10⁻⁶ cm/s]
O=C(Nc1nnc(-c2cccs2)o1)c1ccc(Cl)cc1 | 126
COc1ccc(-n2nc(C3CCN(C(=O)c4ccccc4)CC3)[nH]c2=O)cc1 | 331
COc1ccc(NC(=O)c2ccccc2)cc1S(=O)(=O)Nc1ccc(Br)cc1 | 731
Fc1ccc(-c2csc3ncnc(Sc4nnnn4C4CC4)c23)cc1 | 834
OCc1ccc(-c2nn(Cc3ccccc3)c3ccccc23)o1 | 842
O=C(COC(=O)CCC(=O)c1cccs1)NCc1ccco1 | 121
COc1ccc(-c2cc(-c3cccc(NC(C)=O)c3)cn3cncc23)cn1 | 39
COc1cc(Cl)c(C)cc1NS(=O)(=O)c1c(C)nc2sccn2c1=O | 787
O=C(Cc1ccc(Cl)c(Cl)c1)Nc1ccc(S(=O)(=O)Nc2cccc(O)c2)cc1 | 15.6
CCOc1ccc(-c2cn3c(n2)sc2cc(C(=O)NCCCN(CC)CC)ccc23)cc1 | > 1000
CCN1C(=O)c2ccccc2[S@](=O)c2ccc(C(=O)NCc3ccc(C#N)cc3)cc21 | 872
COc1ccc(CNC(=O)Cn2nc3c(cc2=O)CCCC3)cc1 | 40.6
COc1ccc(C2=Nn3c(nnc3-c3ccncc3)SC2)cc1 | 244
CSc1nnc2c3ccccc3n(CCc3ccccc3)c2n1 | > 1000
COc1ccc2[nH]cc(CCNC(=O)c3cnn(-c4ccc(C)cc4)c3C3CCN(C(=O)OC(C)(C)C)CC3)c2c1 | 153
CCn1cc(CNC(=O)c2cc(-c3ccc(C)cc3)nc3ccc(Br)cc23)c(C)n1 | 5.55
COc1cccc(-n2ncc3c2CCCC3NC(=O)c2ccccn2)c1 (centres undefined) | > 1000
Fc1ccc(Nc2nc(-c3ccncc3)ncc2-c2ccccc2)cc1F | < 1
CCNC(=O)c1coc(COc2ccc3c(c2)C(c2ccc(F)cc2)N(C(=O)CC(C)C)CC3)n1 (centres undefined) | 938
Fc1cc(Nc2nc(-c3ccncc3)nc3ccccc23)ccc1-c1cc(F)c(F)c(F)c1 | 21.1
Cc1ccc(S(=O)(=O)Nc2cnccc2C(=O)Nc2nc(-c3ccc(F)cc3)cs2)cc1 | 423
Cc1csc2nc(-c3cccc(NC(=O)c4ccccc4Cl)c3)cn12 | 651

SMILES | Papp [×10⁻⁶ cm/s]
Cc1cc2c(-c3cccc(O)c3)nc(-c3c(C)noc3C)cc2[nH]1 | > 1000
c1ccc2c(Nc3ccc4nc[nH]c4c3)nc(-c3ccncc3)nc2c1 | 16.7
Cc1ccc(-c2cc(C(=O)Nc3ccc(C#N)cc3)c3ccccc3n2)cc1C | 285
CC1CCc2ccc(F)cc2N1S(=O)(=O)c1cccs1 (centres undefined) | 795
O=C(c1ccccc1)N1CCC(c2nn(-c3ccc(F)cc3)c(=O)[nH]2)CC1 | 679
COc1ccc(-c2ccc3ncc(Nc4ccc(C(N)=O)cc4)n3n2)cc1OC | 149
O=C(O)c1ccccc1-c1ccc(/C=c2\sc3nc4cc(Br)cnc4n3c2=O)o1 | 12.3
Nc1nc(Nc2ccc(S(N)(=O)=O)cc2)nn1C(=O)c1c(F)cccc1F | 1.61
O=C(Nc1ncnc2sc3c(c12)CCC3)c1ccco1 | 369
CN(C(=O)CSc1nc2c(c(=O)[nH]1)CCCC2)c1ccccc1 | 143
O=C(O)CCC(=O)Nc1nc(-c2ccccc2)cs1 | < 1
Cc1nc(N)nc2ccccc12 | 69.7
Cc1cccc(CNc2ccc(S(=O)(=O)Nc3nccs3)cc2)c1O | 7.9
O=C(Nc1ccccc1)C1CCN(c2ncc(-c3ccc4c(c3)OCCCO4)s2)CC1 | 917
CC(=O)c1ccc(N2CCN(C(=O)c3ccc4c(c3)CC(=O)N4)CC2)cc1 | 40.5
CCCc1cc(C)[nH]c(=O)c1CNC(=O)c1cc(-c2ccc(N3CCN(C(C)C)CC3)nc2)cc2c1cnn2C(C)C | > 1000
CCOC(=O)N1CCc2c(sc(NCc3ccc(N(C)C)cc3)c2C(=O)Nc2ccc(OC)cc2)C1 | 58.5
Fc1ccc(Nc2nc(-c3ccnc4ccccc34)nc3ccccc23)cc1F | 202
CCN1CCN(C(=O)c2cc(-c3ccc(F)cc3)c3nncn3n2)CC1 | 159
Nc1cc(-c2nc(Nc3ccc(F)c(F)c3)c3ccccc3n2)ccn1 | > 1000
Clc1ccc(-c2nnc(C3CCCCC3)o2)cc1 | > 1000
Cn1cc2c3c(cccc31)CN(C(=O)c1ccc(F)c(Cl)c1)CC2 | > 1000

SMILES | Papp [×10⁻⁶ cm/s]
COc1ccc(NC(=O)c2ccc[nH]2)cc1S(=O)(=O)Nc1ccc(Br)cc1 | > 1000
Cc1ccc(S(=O)(=O)Nc2cnccc2C(=O)Nc2nc(C3CCC3)cs2)cc1 | 497
COc1cccc(Nc2nc(-c3ccncc3)nc3ccccc23)c1 | > 1000
CC(C)NC(=O)C1CCN(C(=O)c2cc3sccc3n2Cc2ccc(Cl)cc2)CC1 | > 1000
CC1CCCCN1c1ncnc(N)c1[N+](=O)[O-] (centres undefined) | 269
O=C(CCc1ccccc1)Nc1ccc(S(=O)(=O)Nc2nccs2)cc1 | 9.34
COc1ccnc(NC(=S)N2CCN(c3ccccc3C(F)(F)F)CC2)c1 | 489
O=C1CCCC2=C1C1(CCCC1)N=C(Nc1nc3ccccc3o1)N2 | 294
CC(=O)c1cccc(-c2csc(N3CCC(C(N)=O)CC3)n2)c1 | 328
CCc1cccc(NC(=O)C(Cc2ccccc2)NS(=O)(=O)c2cccs2)c1 (centres undefined) | 887
Cc1ccc(NS(=O)(=O)c2c(C)[nH]c(C)c2C(=O)N2CCCC2)cc1Cl | 387
CN1CCC(N(Cc2cccs2)c2ccccc2)CC1 | > 1000
Fc1cccc(Nc2nc(-c3ccncc3)nc3ccccc23)c1F | 799
CC(=O)N[C@H]1CN(C2CCN(c3ccc(F)cc3C)CC2)C[C@@H]1C1CC1 | > 1000
COc1ccc(C(=O)N[C@@H]2CCC[C@@H]2C(=O)N2CCC(Cc3ccccc3)CC2)cc1 | > 1000
CC(=O)c1c(C)[nH]c(C(=O)Nc2cccc(S(=O)(=O)N3CCCCCC3)c2)c1C | > 1000
CCCCCCCCc1ccc(CCC(N)(CO)CO)cc1 | 5.3
Fc1ccc(Nc2nccc(-c3ccncc3)n2)cc1F | > 1000
COc1ccc(O)c2c(=O)c3c(OC)cc4c(c3oc12)C1C=COC1O4 (centres undefined) | 890
CCOC(=O)C1CCN(C(=O)C(C)(C)NC(=O)Nc2ccc(-c3ccccc3)cc2)CC1 | 486
Cc1cccc(-n2nc(C)c3c2NC(=O)CSC3c2ccccc2Cl)c1 (centres undefined) | > 1000
O=S(=O)(Nc1nc2n(n1)C(c1ccccc1)C=C(c1ccc(Cl)cc1)N2)c1ccccc1 (centres undefined) | 9.09

SMILES | Papp [×10⁻⁶ cm/s]
COc1cccc(OC)c1C(=O)Nc1ccccc1C(=O)Nc1cccc(C(F)(F)F)c1 | 899
COc1ccc2[nH]c(=O)c(-c3noc(-c4ccccc4)n3)cc2c1 | 760
CCOc1ccccc1N(CC(=O)Nc1cc(OC)ccc1OC)S(=O)(=O)c1ccccc1 | 968
COc1ccc2[nH]c(C[C@@H]3C[C@@H](C(C)C)[C@H](CNCc4ccccc4O)C=C3C)nc2n1 | > 1000
COc1cc(Cl)c(C)cc1Nc1c2c(nc3ccccc13)CCC2 | > 1000
Cc1cc(SCc2sc(-c3ccc(C(F)(F)F)cc3)nc2C)ccc1OCC(=O)O | 520
COc1c2c(c3c(c1CCC(=O)O)OC(C)(C)C=C3)OC(C)(C)C=C2 | 43.9
Cc1cc(F)ccc1S(=O)(=O)Nc1cnccc1C(=O)Nc1nc(-c2ccccc2)cs1 | > 1000
Cc1ccc(S(=O)(=O)Nc2ccccc2C(=O)Nc2ncc(-c3ccccc3)s2)cc1 | 125
CCOC(=O)c1[nH]c(C)c(CCC(=O)N2CCN(c3cc(Cl)ccc3C)CC2)c1C | > 1000
COc1cccc(-c2csc(N3CCC(C(N)=O)CC3)n2)c1 | 638
CCOC(=O)c1ccc(NC(=O)N2Cc3[nH]cnc3C[C@H]2c2nc(C(C)C)no2)cc1 | 113
Cc1ccc(NC(=O)NCC2CCN(Cc3cccc(Cl)c3)CC2)cc1Cl | 746
Cc1ccc(NS(=O)(=O)c2ccc3c(c2)NC(=O)CO3)cc1C | 706
Cc1ccc(-c2nc(NCC(=O)Nc3cccc(C(=O)O)c3)c3ccccc3n2)cc1 | < 1
Fc1ccc(Nc2nc(-c3ccncc3F)nc3ccccc23)cc1F | 325
CCc1ccccc1-n1c(SCC(=O)Nc2ccc(C)cc2)nc2n[nH]c(C)c2c1=N | 95.3
CCOc1ccc(Nc2nc(C)c(NC(=O)c3ccc(C)cc3)c(Nc3ccc(OCC)cc3)n2)cc1 | 211
O=C(Nc1ccc(C(=O)N2CCCC2)cc1)c1ccccc1F | 139
NC(=O)C1CCN(c2ncc(-c3ccc4c(c3)OC(F)(F)O4)s2)CC1 | 438
O=[N+]([O-])c1cccc(CSc2nc3ncc(Br)cc3[nH]2)c1 | 550
O=C1CCCC2=C1C(c1[nH]ncc1Cl)N=C(Nc1nc3ccc(Cl)cc3o1)N2 (centres undefined) | 651

SMILES | Papp [×10⁻⁶ cm/s]
O=C(Nc1ccc2oc(-c3cccnc3)nc2c1)c1ccc(-c2cccc(Cl)c2)o1 | 310
Fc1ccc(CNc2nc(-c3ccncc3)nc3ccccc23)cc1F | 569
Cc1ccccc1N(C)C1CN([S+](=O)([O-])c2cccc(C(F)(F)F)c2)C1 | 991
O=C1CCC(CNC(=O)c2nc(-c3ccccc3)cc3[nH]ccc23)N1 (centres undefined) | 123
CC(=O)Nc1ccc(N[S+](=O)([O-])c2cccc(NC(=O)c3[nH]c(C)c(C(C)=O)c3C)c2)cc1 | 20.6
N#Cc1ccc(C(=O)Nc2ccc(Cl)c(-c3nc4cc(Cl)ccc4o3)c2)c(F)c1 | < 1
Fc1ccc(Oc2nc(-c3ccncc3)nc3ccccc23)cc1F | 16.5
CCN1C(=O)c2ccccc2S(=O)c2ccc(NC(=O)Cc3ccc(OC)cc3)cc21 (centres undefined) | > 1000
NC(=O)C1CCN(c2nc(-c3cccc(Br)c3)cs2)CC1 | 788
CCN(CC)CCCC(C)Nc1cc(/C=C/c2ccccc2Cl)nc2cc(Cl)ccc12 (centres undefined) | 833
O=C(NCCCO)c1ccc(-c2ncc3cnc(-c4cccc(F)c4)cn23)cc1 | 32
CC(C)C(=O)N1CCc2ccc(OCc3nc(C(=O)N4CCCC4)co3)cc2C1c1cccc(F)c1 (centres undefined) | 188
CN(C)c1cccc(-c2ncc(F)c(N3CCC(C(N)=O)CC3)n2)c1 | 599
Cc1cccc(-n2c(C)cc(C=C(C#N)C#N)c2C)c1 | 43
Cc1ccc(-c2cc(C(=O)Nc3ccc(-n4cncn4)cc3)c3ccccc3n2)cc1C | < 1
CC(C)(C#N)c1ccc(N2C(=O)OCc3cnc4ccc(-c5cnc6ccccc6c5)cc4c32)cc1 | 47.5
Cc1cc(C)nc(NC(=S)N2CCN(c3cccc(C(F)(F)F)n3)CC2)c1 | 589
O=C(NC1CCN(c2cc(-c3ccc(Cl)cc3)[nH]n2)C1)c1ccccc1 (centres undefined) | 706
Cn1nnnc1Sc1ncnc2scc(Br)c12 | 177
CCOc1ccc(CCNC(=O)c2cc3sccc3n2CCN2CCN(C)CC2)cc1OCC | > 1000
O=c1c2ccccc2nc2n1CCC2 | 44.2
